Experimental data: ChEMBL document CHEMBL2384905, “Therapeutic agents triggering nonapoptotic cancer cell death” (J Med Chem, 2013)

Tests used:
Type in all cases: functional, Homo sapiens, Cancer cell lines
[1] = Antitumor activity against lung cancer cells in lung cancer patient assessed as tumor growth inhibition relative to control
[2] = Antitumor activity against lung cancer cells in lung cancer patient assessed as survival rate relative to control
[3] = Antitumor activity against lung cancer cells in lung cancer patient assessed as remission rate relative to control

With CC(C)=CC[C@@H](O)C1=CC(=O)c2c(O)ccc(O)c2C1=O [SHIKONIN] the TGI [1] was 63%, the Survival [2] was 47% and the Activity [3] was 37%.
